Results on 16 molecules are retold here after patent publication US8962843B2, “1,3,4-oxadiazole and 1,3,4-thiadiazole beta-lactamase inhibitors” (priority 2012, dated 2015).

Structures can show the parent of a compound that is named as a salt.

The test system of assay [1] is bacterial strains that express the class D cephalosporinase OXA-15. Put plainly: Standard BLI potentiation MIC / synergy MIC assays, strains expressing OXA-15. The class given is cell-based, E. coli. The settings on record: in combination with a β-lactam; comparator Avibactam (CCC). Summed up:
(§1)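 Broth microdilution in cation-adjusted Mueller Hinton broth per CLSI M07-A9, ~10^5 CFU/mL, 18-20 h at 37 °C with aeration; engineered E. coli carrying β-lactamase plasmids kept on 25 μg/mL tetracycline. β-lactam MIC measured in 2-fold dilutions (128-0.13 μg/mL) with BLI fixed at 4 μg/mL; sMIC titrates BLI against a fixed β-lactam concentration. MIC = lowest concentration without visible turbidity.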

In assay [2] the test system is bacterial strains that express KPC β-lactamases. Description: Standard BLI potentiation MIC / synergy MIC assays, strains expressing KPC β-lactamases. The class given is cell-based. The settings on record: in combination with a β-lactam; comparator Avibactam. Summed up: as §1

With `N=C(N)NC1CC(Cc2nnc([C@@H]3CC[C@@H]4CN3C(=O)N4OS(=O)(=O)O)o2)C1` (stereo partly drawn) [Compound 752, (2S,5R)-2-(5-((3-guanidinocyclobutyl)methyl)-1,3,4-oxadiazol-2-yl)-7-oxo-1,6-diazabicyclo[3.2.1]octan-6-yl hydrogen sulfate], the “activity against bacterial strains that express the class D cephalosporinase OXA-15, compared with Avibactam” value in assay [1] is listed as “more active than Avibactam”. In addition, the “activity and/or spectrum of activity against bacterial strains that express KPC β-lactamases, compared with Avibactam” value in assay [2] is given as “more active than Avibactam for at least one, bacterial strain that expresses KPC β-lactamase and/or show a better spectrum of activity”.

Take `N[C@H]1C[C@H](CCc2nnc([C@@H]3CC[C@@H]4CN3C(=O)N4OS(=O)(=O)O)o2)C1` [Compound 753, (2S,5R)-2-(5-(2-((1r,3R)-3-aminocyclobutyl)ethyl)-1,3,4-oxadiazol-2-yl)-7-oxo-1,6-diazabicyclo[3.2.1]octan-6-yl hydrogen sulfate]: the “activity against bacterial strains that express the class D cephalosporinase OXA-15, compared with Avibactam” value in assay [1] is on record as “more active than Avibactam”. The “activity and/or spectrum of activity against bacterial strains that express KPC β-lactamases, compared with Avibactam” value in assay [2] is recorded as “more active than Avibactam for at least one, bacterial strain that expresses KPC β-lactamase and/or show a better spectrum of activity”.

With `N[C@H]1C[C@@H](CCc2nnc([C@@H]3CC[C@@H]4CN3C(=O)N4OS(=O)(=O)O)o2)C1` [Compound 754, (2S,5R)-2-(5-(2-((1s,3S)-3-aminocyclobutyl)ethyl)-1,3,4-oxadiazol-2-yl)-7-oxo-1,6-diazabicyclo[3.2.1]octan-6-yl hydrogen sulfate], the “activity against bacterial strains that express the class D cephalosporinase OXA-15, compared with Avibactam” value in assay [1] is recorded as “more active than Avibactam”. The “activity and/or spectrum of activity against bacterial strains that express KPC β-lactamases, compared with Avibactam” value in assay [2] is reported as “more active than Avibactam for at least one, bacterial strain that expresses KPC β-lactamase and/or show a better spectrum of activity”.

As for `NC1CC(NCc2nnc([C@@H]3CC[C@@H]4CN3C(=O)N4OS(=O)(=O)O)o2)C1` (stereo partly drawn) [Compound 755, (2S,5R)-2-(5-(((3-aminocyclobutyl)amino)methyl)-1,3,4-oxadiazol-2-yl)-7-oxo-1,6-diazabicyclo[3.2.1]octan-6-yl hydrogen sulfate], the “activity against bacterial strains that express the class D cephalosporinase OXA-15, compared with Avibactam” value in assay [1] was “more active than Avibactam”. Besides, the “activity and/or spectrum of activity against bacterial strains that express KPC β-lactamases, compared with Avibactam” value in assay [2] was “more active than Avibactam for at least one, bacterial strain that expresses KPC β-lactamase and/or show a better spectrum of activity”.

For the molecule `N[C@H]1C[C@@H](NCc2nnc([C@@H]3CC[C@@H]4CN3C(=O)N4OS(=O)(=O)O)o2)C1` [Compound 756, (2S,5R)-2-(5-((((1s,3R)-3-aminocyclobutyl)amino)methyl)-1,3,4-oxadiazol-2-yl)-7-oxo-1,6-diazabicyclo[3.2.1]octan-6-yl hydrogen sulfate], the “activity against bacterial strains that express the class D cephalosporinase OXA-15, compared with Avibactam” value in assay [1] is “more active than Avibactam”. In addition, in assay [2], the “activity and/or spectrum of activity against bacterial strains that express KPC β-lactamases, compared with Avibactam” value was “more active than Avibactam for at least one, bacterial strain that expresses KPC β-lactamase and/or show a better spectrum of activity”.

`O=C1N2C[C@@H](CC[C@H]2c2nnc([C@H]3CCNC3)o2)N1OS(=O)(=O)O` [Compound 758, (2S,5R)-7-oxo-2-(5-((S)-pyrrolidin-3-yl)-1,3,4-oxadiazol-2-yl)-1,6-diazabicyclo[3.2.1]octan-6-yl hydrogen sulfate]: the “activity against bacterial strains that express the class D cephalosporinase OXA-15, compared with Avibactam” value in assay [1] is “more active than Avibactam”. The “activity and/or spectrum of activity against bacterial strains that express KPC β-lactamases, compared with Avibactam” value in assay [2] is “more active than Avibactam for at least one, bacterial strain that expresses KPC β-lactamase and/or show a better spectrum of activity”.

Regarding `O=C1N2C[C@@H](CC[C@H]2c2nnc([C@@H]3CCNC3)o2)N1OS(=O)(=O)O` [Compound 759, (2S,5R)-7-oxo-2-(5((R)-pyrrolidin-3-yl)-1,3,4-oxadiazol-2-yl)-1,6-diazabicyclo[3.2.1]octan-6-yl hydrogen sulfate], in assay [1], the “activity against bacterial strains that express the class D cephalosporinase OXA-15, compared with Avibactam” value is “more active than Avibactam”. Further, the “activity and/or spectrum of activity against bacterial strains that express KPC β-lactamases, compared with Avibactam” value in assay [2] is recorded as “more active than Avibactam for at least one, bacterial strain that expresses KPC β-lactamase and/or show a better spectrum of activity”.

`N[C@@H]1CN[C@H](c2nnc([C@@H]3CC[C@@H]4CN3C(=O)N4OS(=O)(=O)O)o2)C1` [Compound 760, (2S,5R)-2-(5-((2S,4S)-4-aminopyrrolidin-2-yl)-1,3,4-oxadiazol-2-yl)-7-oxo-1,6-diazabicyclo[3.2.1]octan-6-yl hydrogen sulfate]: in assay [1], the “activity against bacterial strains that express the class D cephalosporinase OXA-15, compared with Avibactam” value is on record as “more active than Avibactam”. Also, in assay [2], the “activity and/or spectrum of activity against bacterial strains that express KPC β-lactamases, compared with Avibactam” value was “more active than Avibactam for at least one, bacterial strain that expresses KPC β-lactamase and/or show a better spectrum of activity”.

As for `N[C@H]1CN[C@@H](c2nnc([C@@H]3CC[C@@H]4CN3C(=O)N4OS(=O)(=O)O)o2)C1` [Compound 761, (2S,5R)-2-(5-((2R,4R)-4-aminopyrrolidin-2-yl)-1,3,4-oxadiazol-2-yl)-7-oxo-1,6-diazabicyclo[3.2.1]octan-6-yl hydrogen sulfate], the “activity against bacterial strains that express the class D cephalosporinase OXA-15, compared with Avibactam” value in assay [1] was “more active than Avibactam”. In assay [2], the “activity and/or spectrum of activity against bacterial strains that express KPC β-lactamases, compared with Avibactam” value is recorded as “more active than Avibactam for at least one, bacterial strain that expresses KPC β-lactamase and/or show a better spectrum of activity”.

Regarding `N[C@H]1CN[C@H](c2nnc([C@@H]3CC[C@@H]4CN3C(=O)N4OS(=O)(=O)O)o2)C1` [Compound 762, (2S,5R)-2-(5-((2S,4R)-4-aminopyrrolidin-2-yl)-1,3,4-oxadiazol-2-yl)-7-oxo-1,6-diazabicyclo[3.2.1]octan-6-yl hydrogen sulfate], the “activity against bacterial strains that express the class D cephalosporinase OXA-15, compared with Avibactam” value in assay [1] was “more active than Avibactam”. In addition, in assay [2], the “activity and/or spectrum of activity against bacterial strains that express KPC β-lactamases, compared with Avibactam” value is “more active than Avibactam for at least one, bacterial strain that expresses KPC β-lactamase and/or show a better spectrum of activity”.

For `N[C@@H]1CN[C@@H](c2nnc([C@@H]3CC[C@@H]4CN3C(=O)N4OS(=O)(=O)O)o2)C1` [Compound 763, (2S,5R)-2-(5-((2R,4S)-4-aminopyrrolidin-2-yl)-1,3,4-oxadiazol-2-yl)-7-oxo-1,6-diazabicyclo[3.2.1]octan-6-yl hydrogen sulfate], the “activity against bacterial strains that express the class D cephalosporinase OXA-15, compared with Avibactam” value in assay [1] is reported as “more active than Avibactam”. Also, in assay [2], the “activity and/or spectrum of activity against bacterial strains that express KPC β-lactamases, compared with Avibactam” value is “more active than Avibactam for at least one, bacterial strain that expresses KPC β-lactamase and/or show a better spectrum of activity”.

As for `O=C1N2C[C@@H](CC[C@H]2c2nnc(CC3CCNC3)o2)N1OS(=O)(=O)O` (stereo partly drawn) [Compound 764, (2S,5R)-7-oxo-2-(5-(pyrrolidin-3-ylmethyl)-1,3,4-oxadiazol-2-yl)-1,6-diazabicyclo[3.2.1]octan-6-yl hydrogen sulfate], in assay [1], the “activity against bacterial strains that express the class D cephalosporinase OXA-15, compared with Avibactam” value is “more active than Avibactam”. For the same molecule, the “activity and/or spectrum of activity against bacterial strains that express KPC β-lactamases, compared with Avibactam” value in assay [2] was “more active than Avibactam for at least one, bacterial strain that expresses KPC β-lactamase and/or show a better spectrum of activity”.

On to `O=C1N2C[C@@H](CC[C@H]2c2nnc(CN[C@H]3CCNC3)o2)N1OS(=O)(=O)O` [Compound 765, (2S,5R)-7-oxo-2-(5-(((S)-pyrrolidin-3-ylamino)methyl)-1,3,4-oxadiazol-2-yl)-1,6-diazabicyclo[3.2.1]octan-6-yl hydrogen sulfate], for which the “activity against bacterial strains that express the class D cephalosporinase OXA-15, compared with Avibactam” value in assay [1] is given as “more active than Avibactam”. In addition, in assay [2], the “activity and/or spectrum of activity against bacterial strains that express KPC β-lactamases, compared with Avibactam” value is recorded as “more active than Avibactam for at least one, bacterial strain that expresses KPC β-lactamase and/or show a better spectrum of activity”.

As for `O=C1N2C[C@@H](CC[C@H]2c2nnc(CN[C@@H]3CCNC3)o2)N1OS(=O)(=O)O` [Compound 766, (2S,5R)-7-oxo-2-(5-(((R)-pyrrolidin-3-ylamino)methyl)-1,3,4-oxadiazol-2-yl)-1,6-diazabicyclo[3.2.1]octan-6-yl hydrogen sulfate], in assay [1], the “activity against bacterial strains that express the class D cephalosporinase OXA-15, compared with Avibactam” value is recorded as “more active than Avibactam”. The “activity and/or spectrum of activity against bacterial strains that express KPC β-lactamases, compared with Avibactam” value in assay [2] is “more active than Avibactam for at least one, bacterial strain that expresses KPC β-lactamase and/or show a better spectrum of activity”.

With `N=C1NCC(c2nnc([C@@H]3CC[C@@H]4CN3C(=O)N4OS(=O)(=O)O)o2)N1` (stereo partly drawn) [Compound 767, (2S,5R)-2-(5-(2-iminoimidazolidin-4-yl)-1,3,4-oxadiazol-2-yl)-7-oxo-1,6-diazabicyclo[3.2.1]octan-6-yl hydrogen sulfate], the “activity against bacterial strains that express the class D cephalosporinase OXA-15, compared with Avibactam” value in assay [1] is “more active than Avibactam”. Further, in assay [2], the “activity and/or spectrum of activity against bacterial strains that express KPC β-lactamases, compared with Avibactam” value is on record as “more active than Avibactam for at least one, bacterial strain that expresses KPC β-lactamase and/or show a better spectrum of activity”.

As for `N[C@H]1CC[C@@H](c2nnc([C@@H]3CC[C@@H]4CN3C(=O)N4OS(=O)(=O)O)o2)C1` [Compound 768, (2S,5R)-2-(5-((1R,3S)-3-aminocyclopentyl)-1,3,4-oxadiazol-2-yl)-7-oxo-1,6-diazabicyclo[3.2.1]octan-6-yl hydrogen sulfate], in assay [1], the “activity against bacterial strains that express the class D cephalosporinase OXA-15, compared with Avibactam” value is reported as “more active than Avibactam”. Also, the “activity and/or spectrum of activity against bacterial strains that express KPC β-lactamases, compared with Avibactam” value in assay [2] is on record as “more active than Avibactam for at least one, bacterial strain that expresses KPC β-lactamase and/or show a better spectrum of activity”.
